From patent publication US20070123537A1, “Quinazoline derivatives for the treatment of herpesviral infections” (GPC Biotech AG, priority 2003, published 2007)
Entries after “also recorded” stand apart in the source; their conditions may differ. Where two headings read alike, the source gives them in different places.

Legend:
[1] = system: clinical HCMV strain R2; assay: Plaque reduction assay, clinical isolate R2; assay type: cell-based, Human Cytomegalovirus (HCMV); details: Human betaherpesvirus 5; GCV- and CDV-resistant strain; read-out: IC 50, clinical strain R2
Description: (§1) HCMV reference strain AD 169 was used at an MOI (multiplicity of infection) of 0.004 for the infection of HFFs in 12 well plates as described in FIG. 2. After virus adsorption, the infected cell layers were overlayed with fresh medium containing the compound concentration as indicated in FIG. 2 and 0.3% agarose. After eight days postinfection, a staining of virus plaques was performed by the use of 1% crystal violet. Quantification was achieved by microscopic counting in quadruplicate (infection in duplicate, counting in duplicate).
(§2) Furthermore, clinical isolates of HCMV like R5, R3 and R2 were used for the infection of HFFs in a plaque reduction assay under the conditions described above. Parallel experiments on phenotype characterization , gene sequencing and UL 97-in-cell-activity assay (GCV phosphorylation) with cloned UL 97 were performed (Marschall, M., et al., J. Gen Virol. 2001, 82, 1439-1450).
(§3) Three clinical HCMV strains were investigated on replication in the presence of the selected quinazoline derivatives 3,4-Dichloro-phenyl)-quinazolin-4-yl-amine (compound 37), (3,4-Dichloro-phenyl)-(6-methyl-quinazolin-4-yl)-amine (compound 49) and (4-Bromo-phenyl)-quinazolin-4-yl-amine (compound 98).

[2] = system: clinical HCMV isolate R3; assay: Plaque reduction assay, clinical isolate R3; assay type: cell-based, Human Cytomegalovirus (HCMV); details: partially GCV resistant, CDV sensitive isolate; read-out: IC 50, clinical isolate R3
Description: as §1, §2, §3

[3] = system: clinical HCMV isolate R5; assay: Plaque reduction assay, clinical isolate R5; assay type: cell-based, Human Cytomegalovirus (HCMV); details: GCV sensitive and CDV sensitive isolate; read-out: IC 50, clinical isolate R5
Description: as §1, §2, §3

[4] = system: HCMV mutant AD169deIUL97; assay: Plaque reduction assay with UL97-deleted HCMV mutant; assay type: cell-based, Human Cytomegalovirus (HCMV); details: 50 nM NGIC-I, 10 μM compound 37 or 2 μM CDV
Description: FIG. 3: Replication of UL97-deleted HCMV in the presence of pUL97 inhibitors. Plaque assays were performed with HCMV mutant AD169deIUL97, carrying a deletion in the UL97 gene, in the presence of 0.1% DMSO (no inhib.), 50 nM NGIC-I, 10 μM compound 37 or 2 μM CDV as indicated.
To confirm the conclusion that pUL97 is the target for the antiviral activity of quinazolines, we performed an experiment with an UL97-deleted mutant of HCMV (AD169deIUL97) (Prichard, M. N., Gao, N., Jairath, S., Mulamba, G., Krosky, P., Coen, D. M., Parker, B. O., and Pari, G. S., J. Virol. […], 73, 5663).

[5] = target: T1, viral kinase UL-97 (Human cytomegalovirus, UniProt P16788); assay: UL97 Kinase-Assay on Immobilon Plate; assay type: biochemical
T1 construct: The UL-97 gene was cloned into a baculovirus vector in order to produce GST (glutathione S-transferase) fusion protein; GST; made in house; host or cells: Sf9 insect cells (baculovirus)
T1 sequence (P16788 whole entry, the tested form may be a part): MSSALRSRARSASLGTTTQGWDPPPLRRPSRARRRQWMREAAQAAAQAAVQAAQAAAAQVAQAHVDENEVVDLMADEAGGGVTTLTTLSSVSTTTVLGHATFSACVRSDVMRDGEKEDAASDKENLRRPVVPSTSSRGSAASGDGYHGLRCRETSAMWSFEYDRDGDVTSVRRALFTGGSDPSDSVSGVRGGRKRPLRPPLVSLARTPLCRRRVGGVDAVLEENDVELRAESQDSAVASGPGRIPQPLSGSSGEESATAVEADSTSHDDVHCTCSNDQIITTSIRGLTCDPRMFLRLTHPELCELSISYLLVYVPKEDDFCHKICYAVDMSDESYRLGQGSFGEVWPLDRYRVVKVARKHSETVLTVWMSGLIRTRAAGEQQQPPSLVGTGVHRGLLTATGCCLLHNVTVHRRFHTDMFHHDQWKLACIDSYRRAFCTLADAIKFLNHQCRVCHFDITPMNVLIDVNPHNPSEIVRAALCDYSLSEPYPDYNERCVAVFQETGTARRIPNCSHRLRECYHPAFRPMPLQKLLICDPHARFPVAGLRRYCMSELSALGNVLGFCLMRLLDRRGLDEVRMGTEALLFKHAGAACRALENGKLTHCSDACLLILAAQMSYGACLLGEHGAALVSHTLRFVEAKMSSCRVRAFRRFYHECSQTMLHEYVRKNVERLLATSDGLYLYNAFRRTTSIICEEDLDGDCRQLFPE
Description: UL97 Kinase-Assay on Immobilon Plate
The effect of quinazoline derivatives on the activity of the viral kinase UL-97 was tested. This kinase is derived from human cytomegalovirus (HCMV) (Marschall, M., et al., J. Gen Virol. 2001, 82,1439-1450.). The UL-97 gene was cloned into a baculovirus vector in order to produce GST (glutathione S-transferase) fusion protein. Insect cells (Sf9) were infected and GST-UL-97 purified via glutathione affinity columns according to standard procedures.
The UL-97 kinase reaction was performed as described (Marschall M. et aL, J. Gen. Virol. 2001, 82, 1439-1450). Briefly, 10 μl Assay buffer (3 μM ATP, 60 μg/ml myelin basic protein (MBP) as substrate), 1,0 μCi gamma[^33P]ATP and 10 μp, Basic buffer (20mM Tris-HCl 7.5, 500 μM MnCl2, 1 mM DTT (dithiothreitol)) were given to the test tube before adding various concentrations of the quinazoline derivatives. The reaction was started by adding 0.2 μl UL97 kinase, purified from infected Sf9-insect cells as described above. The total volume was adjusted with Basic buffer to a final volume of 30 μl. The reaction mix was incubated for 1 hr at 30° C. For negative control, 10 μl 0.1 M EDTA (ethylene diamine tetraacetate) was added to reaction mix before addition of UL-97 protein kinase. The reaction was stopped by addition of 10 μl 0.1 M EDTA.
Measuring Incorporation of Radioactivity
An Immobilon plate (Millipore) was rinsed with 50 μl methanol/well. Following addition of 100 μl 0.1 M EDTA, 20 μl of each kinase reaction mix was added to one well of the Immobilon plate. Each well was washed 4× with 250 μl 0.75% phosphoric acid and 1× with 50 μl methanol. After addition of 50 μl scintillation cocktail (Roth, Germany) per well incorporation of radioactivity was measured using a Betareader (Wallac) and enzymatic activity calculated.

[6] = system: HCMV AD-169; assay: HCMV infection of HFFs, reporter gene based antiviral assay; assay type: cell-based, Human Cytomegalovirus (HCMV); details: for HCMV AD 169 Replication [%] of control at 3 μM: 3 μM compound, HFFs, reporter gene activity after seven days; for IC50: replication of HCMV strain AD 169 in HFF cells, read-out: HCMV AD 169 IC 50
Description: To examine the effect of the quinazoline derivatives on HCMV replication, HCMV infections were performed in a cellular system.
Human foreskin fibroblasts (HFFs) were grown to subconfluency in 12 well plates and infected with 0.25 tissue culture infectious doses of HCMV AD-169 carrying a reporter gene (HCMV based antiviral assay). Quinazoline derivatives (stocks in DMSO (Dimethylsulfoxide)) were diluted in culture medium to the concentrations indicated and added to the cells immediately after virus adsorption. The success of infection (reporter gene expressing cells) and the lack of cytotoxicity of the compound (confluent cell layer) was monitored by microscopy. After seven days, cell layers were harvested, lysed and subjected to the automated fluorometry measurement of reporter gene activity. Each panel refers to a determination in quadruplicate (infection in duplicate, lysate preparation and measurement in duplicate).

[7] = target: T2, UL 97 (Human cytomegalovirus, UniProt P16788); assay: UL 97 in-cell activity: protection of HEK 293 cells ectopically expressing UL 97 against toxic GCV; assay type: cell-based, human cytomegalovirus (HCMV); details: HEK 293 cells expressing UL 97
T2 construct: expressed in transfected cells; host or cells: HEK 293
T2 sequence (P16788 whole entry): as the sequence (P16788 whole entry, the tested form may be a part) above
Description: as §2
Furthermore, (IC50)-values of HCMV replication was measured for some compounds in a cellular system. Some quinazoline derivatives protect HEK 293 cells ectopially expressing UL 97 against toxic concentrations of GCV (10 and 20 μM respectively).

[8] = system: HEK 293 cells; assay: Toxicity assay in HEK 293 cells; assay type: cell-based
Description: Toxicity Assay: Toxicity of the quinazoline derivatives was measured by incubating HEK 293 cells with 10 μM of each derivative. The corresponding amount of DMSO served as control.

[9] = system: HCMV reference strain AD 169; assay: Plaque reduction assay, HCMV AD 169 in HFFs; assay type: cell-based, Human Cytomegalovirus (HCMV); details: Human betaherpesvirus 5, 192 h, read-out: IC50 in the plaque reduction assay
Description: as §1

[10] = 3 μM ATP, MBP substrate, read-out: UL 97 IC 50
[11] = Human betaherpesvirus 5, AD169, HFF
[12] = HCMV AD 169, HFFs, eight days postinfection

Compound	inhibition of UL 97-kinase activity (in words) [5]	IC50 [5, 10]	HCMV AD 169 Replication [%] of control at 3 μM [6]	IC50 [6, 11]	other results
Nc1ccn(C[C@@H](CO)OCP(=O)(O)O)c(=O)n1 [CDV, Cidofovir]					IC50 [1]: 4200 nM; IC50 [2]: 350 nM; IC50 [3]: 700 nM; effect on replication of AD169deIUL97 (plaque assay) [4]: complete inhibition; also recorded: efficiently blocked
COc1cc2ncnc(Nc3ccc(Br)cc3)c2cc1OC [Compound 31, (4-Bromo-phenyl)-(6,7-dimethoxy-quinazolin-4-yl)-amine]	potent inhibitors	1200 nM	60%		
Clc1ccc(Nc2ncnc3ccccc23)cc1Cl [Compound 37, (3,4-Dichloro-phenyl)-quinazolin-4-yl-amine]	potent inhibitors	40 nM	45%	2000 to 3000 nM	IC50 [6]: 3000 nM; UL 97 GCV [%] growth at conc. [μM] ([7]; at 10 μM): 80%; UL 97 GCV [%] growth at conc. [μM] ([7]; at 20 μM): 50%; Viability [%] at 10 μM [8]: 77%; IC50 [9, 12]: 2500 to 5000 nM; effect on replication of AD169deIUL97 (plaque assay) [4]: only little or no effect; effect on replication of AD169deIUL97 (plaque assay) ([4]; listed as compound 37): not
Cc1ccc2ncnc(Nc3ccc(Br)cc3)c2c1 [Compound 43, (4-Bromo-phenyl)-(6-methyl-quinazolin-4-yl)-amine]	potent inhibitors	> 100 nM	20%		
Cc1ccc2ncnc(Nc3ccc(Cl)c(Cl)c3)c2c1 [Compound 49, (3,4-Dichloro-phenyl)-(6-methyl-quinazolin-4-yl)-amine]	potent inhibitors	20 nM	20%	2000 to 3000 nM	IC50 [6]: 2500 nM; UL 97 GCV [%] growth at conc. [μM] ([7]; at 10 μM): 80% at 10 μM; Viability [%] at 10 μM [8]: 78%; IC50 [9]: 2500 to 5000 nM
Fc1ccc2c(Nc3cccc(Cl)c3)ncnc2c1 [Compound 70, (3-Chloro-phenyl)-(7-fluoro-quinazolin-4-yl)-amine]	potent inhibitors				
Ic1ccc(Nc2ncnc3ccccc23)cc1 [Compound 72, (4-lodo-phenyl)-quinazolin-4-yl-amine]	potent inhibitors	200 nM			
c1ccc(Nc2ncnc3ccccc23)cc1 [Compound 84, Phenyl-quinazolin-4-yl-amine]					IC50 [5]: 300 nM
Clc1cccc(Nc2ncnc3ccccc23)c1 [Compound 87, (3-Chloro-phenyl)-quinazolin-4-yl-amine]	potent inhibitors	700 nM			
Fc1ccc(Nc2ncnc3ccccc23)cc1 [Compound 88, (4-Fluoro-phenyl)-quinazolin-4-yl-amine]	potent inhibitors	200 nM			
CCc1cccc(Nc2ncnc3ccc(C)cc23)c1 [Compound 89, (3-Ethyl-phenyl)-(6-methyl-quinazolin-4-yl)-amine]	potent inhibitors				
Brc1ccc(Nc2ncnc3ccccc23)cc1 [Compound 98, (4-Bromo-phenyl)-quinazolin-4-yl-amine]	potent inhibitors	170 nM	30%	2000 to 3000 nM	IC50 [6]: 2000 nM; UL 97 GCV [%] growth at conc. [μM] ([7]; at 10 μM): 80%; UL 97 GCV [%] growth at conc. [μM] ([7]; at 20 μM): 60%; Viability [%] at 10 μM [8]: 75%; IC50 [9, 12]: 2500 to 5000 nM
Nc1nc(O)c2ncn(COC(CO)CO)c2n1 [ganciclovir]				3000 to 4000 nM	IC50 [9, 12]: 4000 to 6000 nM; IC50 [1]: 34000 nM; IC50 [2]: 20000 nM; IC50 [3]: 4100 nM
